Structures are written as SMILES.

The values that follow come from ChEMBL document CHEMBL2150866, “Irreversible 4-Aminopiperidine Transglutaminase 2 Inhibitors for Huntington's Disease” (ACS Med Chem Lett, 2012).

Tested on in the first series: not listed separately
Description: Half life in human plasma at 1 uM. The format is ADME, cell-free.
`C=CC(=O)N1CCN(S(=O)(=O)c2ccc(NC(=O)OCc3ccccc3)cc2)CC1` gave a half-life at 1 µM of more than 6 h.

`Nc1ccc(S(=O)(=O)N2CCN(C(=O)C3CC3)CC2)cc1` registered a half-life at 1 µM of more than 6 h.

For the molecule `C=CC(=O)NCC1CCN(S(=O)(=O)c2ccc(NC(=O)OCc3ccccc3)cc2)CC1`, the half-life at 1 µM is more than 6 h.

In turn, `C=CC(=O)NCCN(C)S(=O)(=O)c1ccc(NC(=O)OCc2ccccc2)cc1` had a half-life at 1 µM of more than 6 h.

On to `C=CC(=O)N[C@H]1CCCN(S(=O)(=O)c2ccc(NC(=O)OCc3ccccc3)cc2)C1`, for which the half-life at 1 µM was more than 6 h.

For `C=CC(=O)N[C@@H]1CCCN(S(=O)(=O)c2ccc(NC(=O)OCc3ccccc3)cc2)C1`, the half-life at 1 µM is more than 6 h.

As to `C=CC(=O)N[C@H]1CCN(S(=O)(=O)c2ccc(NC(=O)OCc3ccccc3)cc2)C1`, the half-life at 1 µM is more than 6 h.

Regarding `C=CC(=O)N[C@@H]1CCN(S(=O)(=O)c2ccc(NC(=O)OCc3ccccc3)cc2)C1`, the half-life at 1 µM is more than 6 h.

Turning to `C=CC(=O)NC1CN(S(=O)(=O)c2ccc(NC(=O)OCc3ccccc3)cc2)C1`, the half-life at 1 µM is more than 6 h.

The molecule `C=CC(=O)NC1CCN(S(=O)(=O)c2ccc(C(=O)NCc3ccccc3)cc2)CC1` had a half-life at 1 µM of more than 6 h.

Turning to `C=CC(=O)NC1CCN(S(=O)(=O)c2ccc(C(=O)NCCCc3ccccc3)cc2)CC1`, the half-life at 1 µM is more than 6 h.

The molecule `C=CC(=O)NC1CCN(S(=O)(=O)c2ccc(C(=O)N3CCc4ccccc4C3)cc2)CC1` had a half-life at 1 µM of more than 6 h.

The molecule `C=CC(=O)NC1CCN(S(=O)(=O)c2ccc(C(=O)N(C)CCc3ccccc3)cc2)CC1` yielded a half-life at 1 µM of more than 6 h.

`C=CC(=O)NC1CCN(S(=O)(=O)c2ccc(C(=O)N(C)Cc3ccccc3)cc2)CC1` registered a half-life at 1 µM of more than 6 h.

Molecule `C=CC(=O)NC1CCN(S(=O)(=O)c2ccc(C(=O)NCCC3CCCCC3)cc2)CC1` returned a half-life at 1 µM of more than 6 h.

In turn, `C=CC(=O)NC1CCN(S(=O)(=O)c2ccc(C(=O)NCCC34CC5CC(CC(C5)C3)C4)cc2)CC1` came in with a half-life at 1 µM of more than 6 h.

`C=CC(=O)NC1CCN(S(=O)(=O)c2ccc(C(=O)NCCC3CCOCC3)cc2)CC1`: the half-life at 1 µM is more than 6 h.

For `C=CC(=O)NC1CCN(S(=O)(=O)c2ccc(C(=O)NCCN3CCOCC3)cc2)CC1`, the half-life at 1 µM was more than 6 h.

Tested on in another series: not listed separately
The series can be described thus: Half life in mouse plasma at 1 uM. The format is ADME, cell-free.
The molecule `C=CC(=O)N1CCN(S(=O)(=O)c2ccc(NC(=O)OCc3ccccc3)cc2)CC1` returned a half-life at 1 µM of more than 6 h.

On to `Nc1ccc(S(=O)(=O)N2CCN(C(=O)C3CC3)CC2)cc1`, for which the half-life at 1 µM is more than 24 h.

In turn, `C=CC(=O)NCC1CCN(S(=O)(=O)c2ccc(NC(=O)OCc3ccccc3)cc2)CC1` gave a half-life at 1 µM of more than 6 h.

`C=CC(=O)NCCN(C)S(=O)(=O)c1ccc(NC(=O)OCc2ccccc2)cc1` had a half-life at 1 µM of more than 6 h.

For the molecule `C=CC(=O)N[C@H]1CCCN(S(=O)(=O)c2ccc(NC(=O)OCc3ccccc3)cc2)C1`, the half-life at 1 µM is more than 6 h.

In turn, `C=CC(=O)N[C@@H]1CCCN(S(=O)(=O)c2ccc(NC(=O)OCc3ccccc3)cc2)C1` gave a half-life at 1 µM of more than 6 h.

With `C=CC(=O)N[C@H]1CCN(S(=O)(=O)c2ccc(NC(=O)OCc3ccccc3)cc2)C1`, the half-life at 1 µM is more than 6 h.

Take `C=CC(=O)N[C@@H]1CCN(S(=O)(=O)c2ccc(NC(=O)OCc3ccccc3)cc2)C1`: the half-life at 1 µM is more than 6 h.

The molecule `C=CC(=O)NC1CN(S(=O)(=O)c2ccc(NC(=O)OCc3ccccc3)cc2)C1` registered a half-life at 1 µM of more than 6 h.

`C=CC(=O)NC1CCN(S(=O)(=O)c2ccc(C(=O)NCc3ccccc3)cc2)CC1` displayed a half-life at 1 µM of more than 6 h.

For the molecule `C=CC(=O)NC1CCN(S(=O)(=O)c2ccc(C(=O)NCCCc3ccccc3)cc2)CC1`, the half-life at 1 µM is more than 6 h.

`C=CC(=O)NC1CCN(S(=O)(=O)c2ccc(C(=O)N3CCc4ccccc4C3)cc2)CC1` came in with a half-life at 1 µM of more than 6 h.

`C=CC(=O)NC1CCN(S(=O)(=O)c2ccc(C(=O)N(C)CCc3ccccc3)cc2)CC1` came in with a half-life at 1 µM of more than 6 h.

Take `C=CC(=O)NC1CCN(S(=O)(=O)c2ccc(C(=O)N(C)Cc3ccccc3)cc2)CC1`: the half-life at 1 µM is more than 6 h.

`C=CC(=O)NC1CCN(S(=O)(=O)c2ccc(C(=O)NCCC3CCCCC3)cc2)CC1`: the half-life at 1 µM was more than 6 h.

Regarding `C=CC(=O)NC1CCN(S(=O)(=O)c2ccc(C(=O)NCCC34CC5CC(CC(C5)C3)C4)cc2)CC1`, the half-life at 1 µM was more than 6 h.

For the molecule `C=CC(=O)NC1CCN(S(=O)(=O)c2ccc(C(=O)NCCC3CCOCC3)cc2)CC1`, the half-life at 1 µM is more than 6 h.

Molecule `C=CC(=O)NC1CCN(S(=O)(=O)c2ccc(C(=O)NCCN3CCOCC3)cc2)CC1` came in with a half-life at 1 µM of more than 6 h.

In the next series the target is T1, Protein-glutamine gamma-glutamyltransferase (Homo sapiens, UniProt P21980).
T1 sequence (P21980 whole entry): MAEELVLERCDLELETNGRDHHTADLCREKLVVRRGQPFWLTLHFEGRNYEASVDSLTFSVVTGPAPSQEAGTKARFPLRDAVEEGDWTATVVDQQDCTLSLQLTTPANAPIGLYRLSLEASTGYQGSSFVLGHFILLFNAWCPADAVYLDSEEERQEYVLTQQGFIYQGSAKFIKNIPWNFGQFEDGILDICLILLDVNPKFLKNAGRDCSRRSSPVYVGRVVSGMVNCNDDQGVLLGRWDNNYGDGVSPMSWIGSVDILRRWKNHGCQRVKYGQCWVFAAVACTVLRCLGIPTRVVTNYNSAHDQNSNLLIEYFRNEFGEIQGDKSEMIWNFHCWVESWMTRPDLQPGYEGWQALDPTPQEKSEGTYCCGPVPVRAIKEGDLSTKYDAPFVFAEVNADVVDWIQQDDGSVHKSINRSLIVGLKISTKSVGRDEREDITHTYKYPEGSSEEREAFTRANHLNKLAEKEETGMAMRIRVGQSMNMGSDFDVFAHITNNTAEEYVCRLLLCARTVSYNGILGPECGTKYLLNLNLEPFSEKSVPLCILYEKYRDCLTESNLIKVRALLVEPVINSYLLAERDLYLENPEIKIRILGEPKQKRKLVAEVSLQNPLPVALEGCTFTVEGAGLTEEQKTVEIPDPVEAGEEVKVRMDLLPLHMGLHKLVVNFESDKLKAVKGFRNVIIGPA
Description: Inhibition of human TGM2.
Turning to `Nc1ccc(S(=O)(=O)N2CCN(C(=O)C3CC3)CC2)cc1`, the concentration for half-maximal inhibition (IC50) was more than 80 µM.

Regarding `C=CC(=O)NCC1CCN(S(=O)(=O)c2ccc(NC(=O)OCc3ccccc3)cc2)CC1`, it took 5.1 µM to reach half-maximal inhibition (IC50).

In turn, `C=CC(=O)NCCN(C)S(=O)(=O)c1ccc(NC(=O)OCc2ccccc2)cc1` showed an IC50 of 3.3 µM.

In turn, `C=CC(=O)N[C@H]1CCCN(S(=O)(=O)c2ccc(NC(=O)OCc3ccccc3)cc2)C1` registered an IC50 of more than 80 µM.

For `C=CC(=O)N[C@@H]1CCCN(S(=O)(=O)c2ccc(NC(=O)OCc3ccccc3)cc2)C1`, the IC50 is more than 80 µM.

For the molecule `C=CC(=O)N[C@H]1CCN(S(=O)(=O)c2ccc(NC(=O)OCc3ccccc3)cc2)C1`, the half-maximal inhibitory concentration (IC50) turned out to be 55 µM.

`C=CC(=O)N[C@@H]1CCN(S(=O)(=O)c2ccc(NC(=O)OCc3ccccc3)cc2)C1` showed an IC50 of 30 µM.

On to `C=CC(=O)NC1CN(S(=O)(=O)c2ccc(NC(=O)OCc3ccccc3)cc2)C1`, for which the concentration for half-maximal inhibition (IC50) amounted to 1.6 µM.

In turn, `C=CC(=O)NC1CCN(S(=O)(=O)c2ccc(C(=O)NCc3ccccc3)cc2)CC1` had an IC50 of 0.2 µM.

`C=CC(=O)NC1CCN(S(=O)(=O)c2ccc(C(=O)NCCCc3ccccc3)cc2)CC1` had a half-inhibitory concentration (IC50) of 0.77 µM.

`C=CC(=O)NC1CCN(S(=O)(=O)c2ccc(C(=O)N3CCc4ccccc4C3)cc2)CC1` returned an IC50 of 0.62 µM.

For `C=CC(=O)NC1CCN(S(=O)(=O)c2ccc(C(=O)N(C)CCc3ccccc3)cc2)CC1`, the IC50 was 0.46 µM.

As for `C=CC(=O)NC1CCN(S(=O)(=O)c2ccc(C(=O)N(C)Cc3ccccc3)cc2)CC1`, it took 0.63 µM to reach half-maximal inhibition (IC50).

In turn, `C=CC(=O)NC1CCN(S(=O)(=O)c2ccc(C(=O)NCCC3CCCCC3)cc2)CC1` had an IC50 of 0.14 µM.

In turn, `C=CC(=O)NC1CCN(S(=O)(=O)c2ccc(C(=O)NCCC34CC5CC(CC(C5)C3)C4)cc2)CC1` returned a half-maximal inhibitory concentration (IC50) of 0.66 µM.

Turning to `C=CC(=O)NC1CCN(S(=O)(=O)c2ccc(C(=O)NCCC3CCOCC3)cc2)CC1`, the IC50 was 0.36 µM.

The molecule `C=CC(=O)NC1CCN(S(=O)(=O)c2ccc(C(=O)NCCN3CCOCC3)cc2)CC1` returned an IC50 of 0.38 µM.
